One data set has as its target T1, TR/Trx (Homo sapiens, UniProt Q16881).
T1 sequence (Q16881 1-499 isoform Q16881-5): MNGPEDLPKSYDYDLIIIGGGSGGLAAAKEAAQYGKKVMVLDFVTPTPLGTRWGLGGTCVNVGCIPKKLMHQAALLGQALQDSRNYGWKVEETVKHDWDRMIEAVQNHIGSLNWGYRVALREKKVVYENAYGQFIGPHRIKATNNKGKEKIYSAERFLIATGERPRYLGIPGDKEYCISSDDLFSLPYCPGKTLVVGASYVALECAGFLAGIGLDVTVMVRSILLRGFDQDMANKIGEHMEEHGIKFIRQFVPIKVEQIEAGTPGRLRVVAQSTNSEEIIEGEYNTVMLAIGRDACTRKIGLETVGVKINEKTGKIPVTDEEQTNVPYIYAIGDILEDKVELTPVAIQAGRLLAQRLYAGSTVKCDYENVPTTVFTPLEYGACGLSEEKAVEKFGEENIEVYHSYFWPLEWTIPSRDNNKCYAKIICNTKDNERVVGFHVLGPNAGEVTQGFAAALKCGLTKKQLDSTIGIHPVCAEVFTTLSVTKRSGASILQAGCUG
Put plainly: Thioredoxin dependent reduction of insulin by human thioredoxin reductase and NADPH (IC50 TR/Trx, 96 well). The class given is biochemical. An excerpt: When referring to the particular system being analyzed IC50 is typically followed by an abbreviation referring to that system (i.e., IC50 TR/Trx for the above described thioredoxin redox system which is comprised of thioredoxin reductase and thioredoxin).
A second plate was used for the assessment of biological activity or as a biological screen. Aliquots of disulfides dissolved in DMSO, were be transferred into 96 well plates. The assay to assess their ability to inhibit thioredoxin reductase measures the thioredoxin dependent reduction of insulin by human thioredoxin reductase and NADPH. The effects of the disulfides on the reduction of Trx by TR were measured spectrophotometrically by following the reduction of NADPH at 339 nm with insulin as the final electron acceptor in a buffered mixture of TR, Trx, NADPH and insulin.

The subject of data set [1] is EMT6 mouse mammary tumor cells. In words: Cytotoxicity against EMT6 cells in culture (MTT). To be noted: read-out: Disulfide Cytotoxicity (IC50), Table 5, 48 h exposure.
Data set [2] deals with T2, Human placental thioredoxin reductase (Homo sapiens, UniProt Q16881).
T2 sequence (Q16881 1-499 isoform Q16881-5): T1 sequence (Q16881 1-499 isoform Q16881-5)
Put plainly: NADPH oxidation by thioredoxin reductase with the disulfide as substrate, or with thioredoxin and insulin as final electron acceptor and the disulfide as inhibitor. The class given is biochemical. The procedure:
The thioredoxin was stored at −20° C. with 5 mM dithiothreitol which was removed before use with a desalting column (PD10, Pharmacia, Uppsala, Sweden).
Asymmetrical 2-imidazolyl disulfides which were used as a basis for further development and identified below in Table 1. In Table I, NADPH oxidation by thioredoxin reductase was measured spectrophotometrically as described with either the disulfide as the electron acceptor (substrate) or with thioredoxin and insulin as the final electron acceptor and the disulfide as inhibitors. The reactions were initiated by the addition of NADPH. Km and Ki values were calculated from Lineweaver-Burk plots of the data.
The compounds of Table 1 were synthesized by a method described previously and recrystallized prior to use. Stock solutions of the disulfides were prepared at 10 mM in ethanol and diluted in aqueous media just prior to use. N-ethylmaleimide (NEM), diamide, and DTT were obtained from Sigma Chemical Co. (St. Louis, Mo.). All other chemicals used were of reagent grade. […]

Data set [3] deals with MCF-7 breast cancer cells in scid mice. In words: Activity against MCF-7 breast cancer cells in scid mice. In kind it is in vivo. The conditions noted are these: for T/C %: tumor volume treated versus control at day 28. An excerpt:
This is shown below in Table II.

A further data set can be described thus: in vitro. To be noted: mouse.
[4] abbreviates: Table 4, read-out: Disulfide inhibition of TR/Trx (IC50 TR/Trx) (converted).
Where [5] appears, read: Table 3, read-out: IC50 TR/Trx (converted).

Usually Km stands for the concentration of substrate that gives half-maximal velocity.

Several values for one entry are separate records, joined by “and”; a condition that tells them apart may be missing. Equal entries are not always repeated. Where two headings read alike, the source gives them in different places.

Consider `CCSSc1nccn1C` [Compound A-2], for which the “Disulfide inhibition of TR/Trx (IC50 TR/Trx)” value (from here on “Disulfide inhibition of TR/Trx”) on TR/Trx (Table 4) was 80 µg/mL. The IC50 in data set [1] turned out to be 15 µM.
For `CCCSSc1ncc[nH]1` [Compound B-1], on TR/Trx (Table 4), the “Disulfide inhibition of TR/Trx” value amounted to 7 µg/mL. Further, the IC50 in data set [1] is 21 µM.
On to `CC(C)SSc1nccn1C` [Compound E-2], for which, at TR/Trx (Table 4), the “Disulfide inhibition of TR/Trx” value was found to be 100 µg/mL. The IC50 in data set [1] stood at 33 µM.
On to `CCSSc1ncc[nH]1` [VI-2, ethyl 2-imidazolyl disulfide], for which the Type entry in data set [2] (behaviour towards thioredoxin reductase: substrate, inhibitor or non-reactive) is given as “substrate”. Besides, the Km in data set [2] (disulfide as substrate for reduction by thioredoxin reductase, Lineweaver-Burk) is 48 µM and 48.1 µM. Further, the Toxicity dead/injected in data set [3] (4 mg/kg/day i.p. for 14 days) is reported as 1/8; in data set [3] (6 mg/kg/day i.p. for 14 days) it was 0/8; in data set [3] (12 mg/kg/day i.p. for 14 days), 4/8. Also, the T/C % in data set [3] (4 mg/kg/day i.p. for 14 days) amounted to 83.0%; in data set [3] (6 mg/kg/day i.p. for 14 days), 65.8%; in data set [3] (12 mg/kg/day i.p. for 14 days), 64.6%. At TR/Trx (setting [4]), the IC50 was 25 µM. In addition, the IC50 at 48 h in the data set “in vitro” was 8 µM.
Turning to `CCC(C)SSc1nc2cc([N+](=O)[O-])ccc2[nH]1` (stereo not drawn) [Compound F-10], the “Disulfide inhibition of TR/Trx” value on TR/Trx (Table 4) came to 47 µg/mL. Moreover, the IC50 in data set [1] turned out to be 36 µM.
As to `CCC(C)SSc1nccn1C` (stereo not drawn) [Compound F-2], the “Disulfide inhibition of TR/Trx” value at TR/Trx (Table 4) was 51 µg/mL. In data set [1], the IC50 is 43 µM.
For `CCC(C)SSc1ncccc1C(=O)O` (stereo not drawn) [Compound F-23] the same measures were 81 µg/mL and greater than 180 µM.
In turn, `CC(O)C(C)SSc1ccccc1` (stereo not drawn) [Compound M-13] displayed an IC50 at 48 h in the data set “in vitro” of 46 µM.
For `CCC(C)SSc1nnc(S)s1` (stereo not drawn) [Compound F-4], the IC50 on TR/Trx (setting [5]) was 117 µM. The compound further registered an IC50 at 48 h in “in vitro” of 36 µM.
In the case of `CCC(C)SSc1nccs1` (stereo not drawn) [Compound F-5], the IC50 at 48 h in the data set “in vitro” came to 34 µM.
Regarding `Cc1nnc(SSC(C)C)s1` [Compound E-3], the “Disulfide inhibition of TR/Trx” value on TR/Trx (Table 4) was determined as 100 µg/mL. In addition, the IC50 in data set [1] is greater than 180 µM.
In the case of `CCCCSSc1nccn1C` [Compound C-2], the “Disulfide inhibition of TR/Trx” value at TR/Trx (Table 4) was 147 µg/mL. In addition, the IC50 in data set [1] stood at 26 µM.
For the compound `Cc1ccnc(SSC(C)C)n1` [Compound E-24], the “Disulfide inhibition of TR/Trx” value on TR/Trx (Table 4) stood at 60 µg/mL. Moreover, the IC50 in data set [1] was greater than 180 µM.
For the compound `CC(C)CSSc1ncc[nH]1` [Compound G-1], the “Disulfide inhibition of TR/Trx” value at TR/Trx (Table 4) worked out at 8 µg/mL. Besides, the IC50 in data set [1] is 28 µM.
For the compound `CCC(C)SSc1nc2ccccc2s1` (stereo not drawn) [Compound F-11], the IC50 in the data set “in vitro” amounted to 33 µM.
Take `CC(SSc1nccs1)c1ccccc1` (stereo not drawn) [Compound J-1]: the IC50 on TR/Trx (setting [5]) was 15.8 µM. This compound registered an IC50 at 48 h in “in vitro” of 28 µM.
In the case of `CC(O)C(C)SSc1nc2ccccc2o1` (stereo not drawn) [Compound M-29], the IC50 at 48 h in “in vitro” is 29 µM.
With `CCC(C)SSc1nnc(C)s1` (stereo not drawn) [Compound F-3], the IC50 at TR/Trx (setting [5]) is 68.1 µM. In the data set “in vitro”, this compound showed an IC50 at 48 h of 7 µM.
For `CCC(C)SSc1nc2ccccc2o1` (stereo not drawn) [Compound F-12], at TR/Trx (Table 4), the “Disulfide inhibition of TR/Trx” value was 22 µg/mL. Further, the IC50 in data set [1] was greater than 180 µM.
With `CCC(C)SSc1nccc(C)n1` (stereo not drawn) [Compound F-24], on TR/Trx (Table 4), the “Disulfide inhibition of TR/Trx” value worked out at 83 µg/mL. Further, the IC50 in data set [1] was greater than 180 µM.
Take `CCC(C)SSC1=NCCS1` (stereo not drawn) [Compound F-25]: the IC50 in data set [1] is 31 µM.
As to `Cc1ccc2[nH]c(SSC(C)C(C)O)nc2c1` (stereo not drawn) [Compound M-9], the IC50 in data set [1] is 76 µM.
On to `Cc1ccnc(SSC(C)C(C)O)n1` (stereo not drawn) [Compound M-24], for which the IC50 in data set [1] is no less than 180 µM.
As to `ClCCCSSc1ncc[nH]1` [Compound H-1], the IC50 in data set [1] was greater than 180 µM.
Take `CCC(C)SSc1nc2ccccc2[nH]1` (stereo not drawn) [Compound F-8]: on TR/Trx (Table 4), the “Disulfide inhibition of TR/Trx” value is 7 µg/mL. Also, the IC50 in data set [1] stood at 73 µM.
In the case of `CC(O)C(C)SSc1ncc[nH]1` (stereo not drawn) [Compound M-1], the IC50 in data set [1] is 34 µM.
On to `CCC(C)SSc1ccccc1` (stereo not drawn) [Compound F-13], for which, in data set [1], the IC50 was greater than 180 µM.
For `CC(C)SSc1ncc[nH]1` [Compound E-1], the “Disulfide inhibition of TR/Trx” value at TR/Trx (Table 4) was 7 µg/mL. The IC50 in data set [1] was 24 µM.
As to `ClCCCSSc1ccccc1` [Compound H-13], the IC50 in data set [1] is greater than 180 µM.
Regarding `CC(C)SSc1ccccc1` [Compound E-13], the IC50 in data set [1] is greater than 180 µM.
Consider `CCCSSC1CCCC1` [Compound F-27], for which the IC50 at TR/Trx (setting [4]) is 289 µM. For the same compound, in “in vitro”, the IC50 at 48 h turned out to be 51 µM.
In the case of `CCC(C)SSCC(C)C(=O)N1CCCC1C(=O)O` (stereo not drawn) [Compound F-28], the IC50 in data set [1] is greater than 180 µM.
The same measure, in the same setting: then `ClCCCSSCc1ccccc1` [Compound H-19], with 108 µM; and `CC(O)C(C)SSc1ncnc2[nH]cnc12` (stereo not drawn) [Compound M-7], with no less than 180 µM; and `Cn1ccnc1SSCCCCl` [Compound H-2], with greater than 180 µM.
For the compound `CCC(C)SSC(C)c1ccccc1` (stereo not drawn) [Compound F-22], at TR/Trx (Table 4), the “Disulfide inhibition of TR/Trx” value came out at 201 µg/mL. For the same compound, the IC50 in data set [1] is greater than 180 µM.
Regarding `CCC(C)SSCc1cccc(OC)c1` (stereo not drawn) [Compound F-20], the “Disulfide inhibition of TR/Trx” value on TR/Trx (Table 4) was determined as 61 µg/mL. Further, the IC50 in data set [1] is greater than 180 µM.
As to `CC(C)SSc1ncccc1C(=O)O` [Compound E-23], at TR/Trx (Table 4), the “Disulfide inhibition of TR/Trx” value was 40 µg/mL. Further, the IC50 in data set [1] was greater than 180 µM.
As to `ClCCCSSc1nc2ccccc2[nH]1` [Compound H-8], the IC50 in data set [1] was determined as 82 µM.
With `CCC(C)SSCc1ccccc1` (stereo not drawn) [Compound F-19], the “Disulfide inhibition of TR/Trx” value on TR/Trx (Table 4) was greater than 189 µg/mL. The IC50 in data set [1] was 108 µM.
Regarding `CC(O)C(C)SSCc1ccccc1` (stereo not drawn) [Compound M-19], in data set [1], the IC50 was 91 µM.

For the origin of these results see patent publication US6552060B1, “Asymmetric disulfides and methods of using same” (Prolx Pharmaceuticals, Inc., priority 1997, dated 2003).
